From ChEMBL document CHEMBL5523747, “Discovery of a Series of Orally Bioavailable Androgen Receptor Degraders for the Treatment of Prostate Cancer” (J Med Chem, 2024)
Activity calls are given as the source filed them. The calls are words filed in the database; no cut-off is given here.

Key:
[1] = target: Protein cereblon/Androgen receptor (Homo sapiens, UniProt P10275+Q96SW2, L702H); experiment: PROTAC activity at CRBN/AR L702H mutant (unknown origin) expressed in human LNCaP cells assessed as protein degradation measured after 24 hrs incubation by imaging IF assay; assay type: cell-based
[2] = test system: Protein cereblon/Androgen receptor (Homo sapiens), P10275+Q96SW2 [L702H]; experiment: PROTAC activity at CRBN/AR L702H mutant (unknown origin) expressed in human LNCaP cells assessed as maximal protein degradation measured after 24 hrs incubation by imaging IF assay relative to control; assay type: cell-based
[3] = target: T1, Protein cereblon/Androgen receptor (Homo sapiens, UniProt P10275+Q96SW2); experiment: PROTAC activity at AR/CRBN in human LNCaP cells assessed as protein degradation measured after 24 hrs incubation by imaging IF assay; assay type: cell-based
Target sequence in this assay (P10275 whole entry): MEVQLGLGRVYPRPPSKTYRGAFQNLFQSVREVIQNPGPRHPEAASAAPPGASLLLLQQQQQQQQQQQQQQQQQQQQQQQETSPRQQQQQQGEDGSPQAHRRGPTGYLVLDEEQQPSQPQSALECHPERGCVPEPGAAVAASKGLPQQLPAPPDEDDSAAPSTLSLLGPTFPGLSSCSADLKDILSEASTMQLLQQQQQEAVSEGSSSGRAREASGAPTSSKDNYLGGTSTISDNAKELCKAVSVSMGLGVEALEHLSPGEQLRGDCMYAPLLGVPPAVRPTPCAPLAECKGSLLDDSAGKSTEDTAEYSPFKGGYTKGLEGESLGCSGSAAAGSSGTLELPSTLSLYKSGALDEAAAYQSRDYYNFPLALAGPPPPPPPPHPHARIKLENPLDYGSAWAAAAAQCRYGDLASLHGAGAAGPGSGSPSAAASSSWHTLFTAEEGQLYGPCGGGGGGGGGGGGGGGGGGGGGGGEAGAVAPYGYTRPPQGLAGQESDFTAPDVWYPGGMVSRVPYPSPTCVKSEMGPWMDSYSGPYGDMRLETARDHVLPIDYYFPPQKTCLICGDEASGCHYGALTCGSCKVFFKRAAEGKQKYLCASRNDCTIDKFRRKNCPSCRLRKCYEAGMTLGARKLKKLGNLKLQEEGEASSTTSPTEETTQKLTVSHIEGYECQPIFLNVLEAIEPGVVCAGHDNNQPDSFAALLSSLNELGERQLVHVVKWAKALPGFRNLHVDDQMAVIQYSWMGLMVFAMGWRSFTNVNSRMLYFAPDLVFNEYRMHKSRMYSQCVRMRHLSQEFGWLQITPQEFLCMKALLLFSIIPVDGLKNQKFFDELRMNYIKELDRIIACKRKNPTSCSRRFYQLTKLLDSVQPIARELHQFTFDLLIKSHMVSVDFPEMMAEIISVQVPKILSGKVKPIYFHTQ
Target sequence in this assay (Q96SW2 whole entry): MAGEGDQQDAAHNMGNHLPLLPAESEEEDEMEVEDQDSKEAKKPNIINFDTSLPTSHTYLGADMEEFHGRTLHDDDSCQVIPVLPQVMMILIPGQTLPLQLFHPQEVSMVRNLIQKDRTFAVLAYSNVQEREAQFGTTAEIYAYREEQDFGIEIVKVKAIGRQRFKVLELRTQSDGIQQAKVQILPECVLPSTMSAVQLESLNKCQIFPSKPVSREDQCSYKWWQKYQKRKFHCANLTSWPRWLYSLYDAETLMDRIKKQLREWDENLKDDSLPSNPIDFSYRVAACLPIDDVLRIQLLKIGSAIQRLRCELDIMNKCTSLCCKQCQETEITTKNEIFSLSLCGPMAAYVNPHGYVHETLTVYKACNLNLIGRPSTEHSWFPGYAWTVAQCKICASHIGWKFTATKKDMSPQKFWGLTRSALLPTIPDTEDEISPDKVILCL

[4] = target: T1, Protein cereblon/Androgen receptor; experiment: PROTAC activity at AR/CRBN in human LNCaP cells assessed as maximal protein degradation measured after 24 hrs incubation by imaging IF assay relative to control; assay type: cell-based
Target sequence in this assay (P10275 whole entry, looked up): as the sequence (P10275 whole entry) above
Target sequence in this assay (Q96SW2 whole entry, looked up): as the sequence (Q96SW2 whole entry) above

[5] = Metabolic stability in human liver microsomes assessed as intrinsic clearance; assay type: ADME, Microsome; conditions: read-out: CLH
[6] = Volume of distribution at steady state in CD-1 mouse at 1 mg/kg, po and 0.5 mg/kg, iv; assay type: ADME, organism-based; conditions: in vivo
[7] = Half life in CD-1 mouse at 1 mg/kg, po and 0.5 mg/kg, iv bolus; assay type: ADME, organism-based; conditions: in vivo
[8] = Oral bioavailability in CD-1 mouse at 1 mg/kg; assay type: ADME, organism-based; conditions: in vivo
[9] = Half life in Beagle dog at 1 mg/kg, po and 0.5 mg/kg, iv infusion over 0.25 hrs; assay type: ADME, organism-based, Canis lupus familiaris; conditions: in vivo
[10] = Half life in CD-1 mouse at 1 mg/kg, po and 0.5 mg/kg, iv; assay type: ADME, organism-based; conditions: in vivo
[11] = Half life in Han Wistar rat at 1 mg/kg, po and 0.5 mg/kg, iv bolus; assay type: ADME, organism-based; conditions: in vivo
[12] = Oral bioavailability in Beagle dog at 1 mg/kg; assay type: ADME, organism-based, Canis lupus familiaris; conditions: in vivo
[13] = Volume of distribution at steady state in CD-1 mouse at 1 mg/kg, po and 0.5 mg/kg, iv bolus; assay type: ADME, organism-based; conditions: in vivo
[14] = Volume of distribution at steady state in Han Wistar rat at 1 mg/kg, po and 0.5 mg/kg, iv bolus; assay type: ADME, organism-based; conditions: in vivo
[15] = Volume of distribution at steady state in Beagle dog at 1 mg/kg, po and 0.5 mg/kg, iv infusion over 0.25 hrs; assay type: ADME, organism-based, Canis lupus familiaris; conditions: in vivo
[16] = Aqueous solubility of compound at pH 7.4 buffer; assay type: physicochemical
[17] = Permeability of compound in human Caco-2 cells; assay type: ADME, cell-based
[18] = Oral bioavailability in Han Wistar rat at 1 mg/kg; assay type: ADME, organism-based; conditions: in vivo
LNCaP C4-2 [19] = experiment: In vivo degradation of AR in human LNCaP C4-2 cells xenografted in mouse model assessed as tumor growth inhibition at 10 mg/kg, po once daily measured after 28 days relative to control; assay type: functional, organism-based; conditions: time 28.0 day
LNCaP C4-2 [20] = experiment: In vivo degradation of AR in human LNCaP C4-2 cells xenografted in mouse model assessed as tumor growth inhibition at 50 mg/kg, po once daily measured after 28 days relative to control; assay type: functional, organism-based; conditions: time 28.0 day
[21] = target: von Hippel-Lindau disease tumor suppressor/Androgen receptor (Homo sapiens) (UniProt P10275+P40337); experiment: PROTAC activity at AR/VHL in human LNCaP cells assessed as maximal protein degradation measured after 24 hrs incubation by imaging IF assay relative to control; assay type: cell-based
von Hippel-Lindau disease tumor suppressor/Androgen receptor (Homo sapiens), sequence (P10275 whole entry, looked up): as the sequence (P10275 whole entry) above
von Hippel-Lindau disease tumor suppressor/Androgen receptor (Homo sapiens), sequence (P40337 whole entry, looked up): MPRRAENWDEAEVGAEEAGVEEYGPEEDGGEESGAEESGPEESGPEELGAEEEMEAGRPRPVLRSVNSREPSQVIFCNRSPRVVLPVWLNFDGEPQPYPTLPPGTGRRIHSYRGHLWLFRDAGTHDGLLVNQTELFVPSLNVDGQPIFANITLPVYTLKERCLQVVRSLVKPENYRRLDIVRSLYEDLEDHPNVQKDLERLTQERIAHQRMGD

Protein cereblon/Androgen receptor (Homo sapiens, UniProt P10275+Q96SW2, L702H), sequence (P10275 whole entry L702H, stated change not applied): as the sequence (P10275 whole entry) above, with L702H counted along it
Protein cereblon/Androgen receptor (Homo sapiens, UniProt P10275+Q96SW2, L702H), sequence (Q96SW2 whole entry, stated change not applied): as the sequence (Q96SW2 whole entry) above

Row | Compound | DC50 [1] [µM] | DC50 [3] [µM] | Emax [4] [%] | microsomal CLint [5] [µL/min/mg] | Vdss [6] [L/kg] | bioavailability [8] [%] | half-life [10] [h] | other results
1 | N#Cc1ccc(N2CCC(c3ccc(N4CCC(CN5CCN(c6cc7c(cc6F)C(=O)N(C6CCC(=O)NC6=O)C7=O)CC5)CC4)cc3)CC2)c(F)c1C(F)(F)F (stereo not given) | 0.992 | 0.087 | 100 |  |  |  |  | Emax [2]: 100%
2 | N#Cc1ccc(N2CCC(c3ccc(OCCCN4CCN(c5ccc6c(c5)CN(C5CCC(=O)NC5=O)C6=O)CC4)cc3)CC2)cc1C(F)(F)F (stereo not given) |  | 0.016 | 79 | 5 |  |  |  | 
3 | N#Cc1ccc(N2CCC(c3ccc(OCCCCCN4CCN(c5ccc6c(c5)CN(C5CCC(=O)NC5=O)C6=O)CC4)cc3)CC2)cc1C(F)(F)F (stereo not given) |  | 0.015 | 94 | 12 |  |  |  | 
4 | N#Cc1ccc(N2CCC(c3ccc(N4CCC(CN5CCN(c6cc7c(cc6F)C(=O)N(C6CCC(=O)NC6=O)C7)CC5)CC4)cc3)CC2)cc1C(F)(F)F (stereo not given) |  | 0.18 | 92 | < 3 |  |  |  | 
5 | N#Cc1ccc(N2CCC(c3ccc(OCCCCN4CCN(c5ccc6c(c5)CN(C5CCC(=O)NC5=O)C6=O)CC4)cc3)CC2)cc1C(F)(F)F (stereo not given) | > 3 | 0.007 | 97 | 10 | 5.2 | 47 | 5 | half-life [7]: 5 h; half-life [9]: 53.5 h; half-life [11]: 6.6 h; bioavailability [12]: 8%; Vdss [13]: 5.2 L/kg; Vdss [14]: 6.2 L/kg; Vdss [15]: 7.1 L/kg; solubility [16]: < 2 µM; Papp [17]: < 0.5 nm/s; bioavailability [18]: 20%
6 | N#Cc1ccc(O[C@H]2CC[C@H](NC(=O)c3ccc(N4CCC(CN5CCN(c6cc7c(cc6F)C(=O)N(C6CCC(=O)NC6=O)C7=O)CC5)CC4)nn3)CC2)cc1Cl (stereo not given in full) |  |  |  |  |  |  |  | Activity (LNCaP C4-2 [19]): Active
7 | N#Cc1ccc(N2CCC(c3ccc(OCCCCN4CCN(c5ccc6c(c5)C(=O)N(C5CCC(=O)NC5=O)C6=O)CC4)cc3)CC2)cc1C(F)(F)F (stereo not given) |  | 0.022 | 100 | 21 |  |  |  | 
8 | COc1cc(N2CCN(CC3CCN(c4cc(F)c(C5CCN(c6ccc(C#N)c(C(F)(F)F)c6F)CC5)c(F)c4)CC3)CC2)cc2c1C(=O)N(C1CCC(=O)NC1=O)C2 (stereo not given) | 0.633 | 0.018 | 100 |  | 3.6 | 30 | 41 | Emax [2]: 80%
9 | N#Cc1ccc(N2CCC(c3ccc(OCCCCN4CCN(c5ccc6c(c5)CN(C5CCC(=O)NC5=O)C6=O)CC4)cc3)CC2)c(F)c1C(F)(F)F (stereo not given) | 0.107 | 0.009 | 100 |  | 3.4 | 30 | 7 | Emax [2]: 78%
10 | COc1cc(N2CCN(CC3CCN(c4ccc(C5CCN(c6ccc(C#N)c(C(F)(F)F)c6F)CC5)c(F)c4)CC3)CC2)cc2c1C(=O)N(C1CCC(=O)NC1=O)C2 (stereo not given) | 0.469 | 0.012 | 100 |  | 2.2 | 50 | 17 | Emax [2]: 100%
11 | N#Cc1ccc(N2CCC(c3ccc(N4CCC(CN5CCN(c6ccc7c(c6)C(=O)N(C6CCC(=O)NC6=O)C7=O)CC5)CC4)cc3)CC2)c(F)c1C(F)(F)F (stereo not given) | 1.33 | 0.17 | 100 |  | 6.2 | 77 | 32 | Emax [2]: 100%
12 | N#Cc1ccc(N2CCC(c3ccc(N4CCC(CN5CCN(c6ccc7c(c6)CN(C6CCC(=O)NC6=O)C7=O)CC5)CC4)cc3)CC2)c(Cl)c1C(F)(F)F (stereo not given) | 0.144 | 0.048 | 80 |  |  |  |  | 
13 | Cc1c(N2CCC(c3ccc(N4CCC(CN5CCN(c6ccc7c(c6)CN(C6CCC(=O)NC6=O)C7=O)CC5)CC4)cc3)CC2)ccc(C#N)c1C(F)(F)F (stereo not given) | > 3 | 0.152 | 70 |  |  |  |  | 
14 | N#Cc1ccc(N2CCC(c3ccc(N4CCC(CN5CCN(c6ccc7c(c6)CN(C6CCC(=O)NC6=O)C7=O)CC5)CC4)cc3)CC2)cc1C(F)(F)F (stereo not given) | > 3 | 0.018 | 85 | 3 | 4.5 | 46 | 19 | 
15 | COc1cc(N2CCN(CC3CCN(c4ccc(C5CCN(c6ccc(C#N)c(C(F)(F)F)c6)CC5)cc4)CC3)CC2)cc2c1C(=O)N(C1CCC(=O)NC1=O)C2 (stereo not given) | > 3 | 0.026 | 92 | < 3 | 2.4 | 50 | 6.8 | half-life [7]: 6.8 h; half-life [9]: 21 h; half-life [11]: 9.1 h; bioavailability [12]: 19%; Vdss [13]: 2.4 L/kg; Vdss [14]: 7.8 L/kg; Vdss [15]: 13 L/kg; solubility [16]: < 2 µM; Papp [17]: < 0.5 nm/s; bioavailability [18]: 27%
16 | N#Cc1ccc(N2CCC(c3ccc(N4CCC(CN5CCN(c6ccc7c(c6)CN(C6CCC(=O)NC6=O)C7=O)CC5)CC4)cc3)CC2)c(F)c1C(F)(F)F (stereo not given) | 0.077 | 0.023 | 95 |  | 2 | 48 | 19.5 | 
17 | CNC(=O)c1ccc(N2C(=S)N(c3ccc(C#N)c(C(F)(F)F)c3)C(=O)C2(C)C)cc1F |  |  |  |  |  |  |  | Activity (LNCaP C4-2 [20]): Active
18 | Cc1ncsc1-c1ccc([C@H](C)NC(=O)[C@@H]2C[C@@H](O)CN2C(=O)[C@@H](NC(=O)COCCCCCNc2ccc(C(=O)N[C@H]3C(C)(C)[C@H](Oc4ccc(C#N)c(Cl)c4)C3(C)C)cc2)C(C)(C)C)cc1 |  |  |  |  |  |  |  | Emax [21]: 100%
